Reference: ChEMBL document CHEMBL1201862, “PubChem BioAssay data set” (2004)
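Step 1: Grow cells in 96-well plates. Step 2: Expose to compound for 48 hours at 5 concentrations. Step 3: Interpolate endpoints linearly; if unreached, use highest concentration. GI50 = concentration required for 50% inhibition of growth.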 The source made the active and inactive calls. No stated cut-off is given here; in the data, active = GI50 up to about 1.1 µM and inactive = higher.

What was measured:
Test in all cases: inhibition of tumour cell growth, NCI panel, 48 h
HOP-92 = test system: HOP-92
T47D = test system: T47D
SK-MEL-28 = test system: SK-MEL-28
CCRF-CEM = test system: CCRF-CEM
Hs-578T = test system: Hs-578T
786-0 = test system: 786-0
KM12 = test system: KM12
BT-549 = test system: BT-549
RXF 393 = test system: RXF 393
ACHN = test system: ACHN
NCI-H460 = test system: NCI-H460
SF-295 = test system: SF-295
SW-620 = test system: SW-620
HCT-15 = test system: HCT-15
HCT-116 = test system: HCT-116
IGROV-1 = test system: IGROV-1
UO-31 = test system: UO-31
HT-29 = test system: HT-29
DU-145 = test system: DU-145
CAKI-1 = test system: CAKI-1

Row | Structure (SMILES) | GI50 (HOP-92) | GI50 (T47D) | GI50 (SK-MEL-28) | GI50 (CCRF-CEM) | GI50 (Hs-578T) | GI50 (786-0) | GI50 (KM12) | GI50 (BT-549) | GI50 (RXF 393) | GI50 (ACHN) | GI50 (NCI-H460) | GI50 (SF-295) | GI50 (SW-620) | GI50 (HCT-15) [µM] | GI50 (HCT-116) | GI50 (IGROV-1) | GI50 (UO-31) | GI50 (HT-29) | GI50 (DU-145) | GI50 (CAKI-1)
1 | O=C(/C=C/c1cccs1)c1cccc(C(=O)/C=C/c2cccs2)n1 | > 100 µM (inactive) | 19.4 µM (inactive) | 53.2 µM (inactive) | 2.82 µM (inactive) | 23.8 µM (inactive) | 6.81 µM (inactive) | 6.43 µM (inactive) | 42.8 µM (inactive) | > 48.9 µM (inactive) | 11.5 µM (inactive) | > 100 µM (inactive) | 76 µM (inactive) | 4.05 µM (inactive) | 24 | 2.82 µM (inactive) | 27.7 µM (inactive) | 21.3 µM (inactive) | 6.21 µM (inactive) | > 81.3 µM (inactive) | 61.4 µM (inactive)
2 | COC(=O)c1ccc(C)cc1C1CN=NC12Cc1cccc(C)c1C2=O (stereo not drawn) | 36.9 µM (inactive) | 24.9 µM (inactive) | 30.7 µM (inactive) | 31.6 µM (inactive) | 38.3 µM (inactive) | > 100 µM (inactive) | 26.7 µM (inactive) | 25.6 µM (inactive) | > 100 µM (inactive) | 38.3 µM (inactive) | 63 µM (inactive) | 50 µM (inactive) | 57.7 µM (inactive) | 47.2 | 42.3 µM (inactive) | 53.1 µM (inactive) | 26.7 µM (inactive) | 71.6 µM (inactive) | 65.2 µM (inactive) | 67.6 µM (inactive)
3 | CCOc1cc(CCNC)c2c(ccc3ccc(OC)c(O)c32)c1OC | 12.1 µM (inactive) | 21.7 µM (inactive) | 17.9 µM (inactive) | 14.9 µM (inactive) | 17.4 µM (inactive) | 17.5 µM (inactive) | 11.9 µM (inactive) | 16.3 µM (inactive) | 15.7 µM (inactive) | 13.6 µM (inactive) | 14.1 µM (inactive) | 16.2 µM (inactive) | – | 17.5 | 10.4 µM (inactive) | 13.9 µM (inactive) | 15.6 µM (inactive) | 14.8 µM (inactive) | 15.2 µM (inactive) | 17.5 µM (inactive)
4 | COc1ccc(-c2c(C#N)c(N)nc(Sc3ccccc3N)c2C#N)cc1 | 4.79 µM (inactive) | 2.82 µM (inactive) | > 50.9 µM (inactive) | > 100 µM (inactive) | 6.05 µM (inactive) | 4.82 µM (inactive) | 44.9 µM (inactive) | 9.35 µM (inactive) | 6.46 µM (inactive) | 13.1 µM (inactive) | 19 µM (inactive) | 10.2 µM (inactive) | > 90.6 µM (inactive) | 24 | 10.7 µM (inactive) | 10.8 µM (inactive) | 13.3 µM (inactive) | 7.69 µM (inactive) | > 47.6 µM (inactive) | 8.36 µM (inactive)
5 | O=C(NNC(=S)Nc1ccccc1)C12CC3CC(CC(C3)C1)C2 | 30.1 µM (inactive) | 27.6 µM (inactive) | 21.9 µM (inactive) | 6.92 µM (inactive) | > 74.3 µM (inactive) | 19.3 µM (inactive) | 43.2 µM (inactive) | 9.1 µM (inactive) | 27.7 µM (inactive) | 20.3 µM (inactive) | 7.23 µM (inactive) | 11.4 µM (inactive) | 24.2 µM (inactive) | 7.28 | 13.6 µM (inactive) | 25.1 µM (inactive) | 4.58 µM (inactive) | 21.3 µM (inactive) | 28.6 µM (inactive) | 21.9 µM (inactive)
6 | Cc1n[nH]c(C(F)(F)F)c1/N=N/N1CCOCC1 | 2.42 µM (inactive) | 3.27 µM (inactive) | 14.7 µM (inactive) | 0.423 µM (active) | 13 µM (inactive) | 2.63 µM (inactive) | 6.37 µM (inactive) | 12.4 µM (inactive) | 12.5 µM (inactive) | 4.52 µM (inactive) | 4.27 µM (inactive) | 12.6 µM (inactive) | 2.32 µM (inactive) | 8.81 | 1.94 µM (inactive) | 10.7 µM (inactive) | 2.4 µM (inactive) | 3.24 µM (inactive) | 4.59 µM (inactive) | 1.9 µM (inactive)
7 | Nc1ncnc2c1ncn2[C@H]1C=C[C@@H](NO)C1 | > 100 µM (inactive) | > 100 µM (inactive) | > 100 µM (inactive) | > 100 µM (inactive) | > 100 µM (inactive) | > 100 µM (inactive) | > 100 µM (inactive) | > 100 µM (inactive) | > 100 µM (inactive) | > 100 µM (inactive) | > 100 µM (inactive) | > 100 µM (inactive) | > 100 µM (inactive) | > 100 | > 100 µM (inactive) | > 100 µM (inactive) | > 100 µM (inactive) | – | > 100 µM (inactive) | > 100 µM (inactive)
8 | O=C(c1ccccc1)c1ccc(N2C(=O)/C(=C/c3cccc(Oc4ccccc4)c3)N=C2c2ccccc2)c(N2C(=O)/C(=C/c3cccc(Oc4ccccc4)c3)N=C2c2ccccc2)c1 | 88.5 µM (inactive) | 30.7 µM (inactive) | 51.3 µM (inactive) | 8.32 µM (inactive) | 26.9 µM (inactive) | 31.5 µM (inactive) | 24.5 µM (inactive) | 24.7 µM (inactive) | 23.8 µM (inactive) | 53 µM (inactive) | 23.9 µM (inactive) | 25 µM (inactive) | 30.7 µM (inactive) | 21.2 | 36.1 µM (inactive) | 39.1 µM (inactive) | 33.3 µM (inactive) | 30.9 µM (inactive) | 46.5 µM (inactive) | 41.5 µM (inactive)
9 | C[C@]12CC[C@H](O)CC1=CC[C@@H]1[C@@H]2CC[C@]2(C)C(=N/O)/C(=C/c3ccc([N+](=O)[O-])cc3)C[C@@H]12 | 3.29 µM (inactive) | 2.48 µM (inactive) | 5.9 µM (inactive) | 5.94 µM (inactive) | 12.1 µM (inactive) | 3.03 µM (inactive) | 0.841 µM (active) | 10.5 µM (inactive) | 3.6 µM (inactive) | 4.13 µM (inactive) | 0.519 µM (active) | 0.45 µM (active) | 9.86 µM (inactive) | 4.78 | 3.93 µM (inactive) | 7.48 µM (inactive) | 8.22 µM (inactive) | 6.15 µM (inactive) | 6.73 µM (inactive) | 7.05 µM (inactive)
10 | N#Cc1nc(-c2cc([N+](=O)[O-])cc([N+](=O)[O-])c2)oc1N | > 10 µM (inactive) | > 10 µM (inactive) | > 10 µM (inactive) | > 10 µM (inactive) | > 10 µM (inactive) | > 10 µM (inactive) | > 10 µM (inactive) | > 10 µM (inactive) | > 10 µM (inactive) | > 10 µM (inactive) | > 10 µM (inactive) | > 10 µM (inactive) | > 10 µM (inactive) | > 10 | > 10 µM (inactive) | > 10 µM (inactive) | 8.93 µM (inactive) | > 10 µM (inactive) | > 10 µM (inactive) | > 10 µM (inactive)
11 | CC1(C)CCC[C@@]2(C)C1CC[C@@]1(CO)O[C@H](C3=CC(=O)OC3O)C[C@H]12 (stereo partly drawn) | 19.1 µM (inactive) | 12.2 µM (inactive) | 11.4 µM (inactive) | 2.74 µM (inactive) | 14.7 µM (inactive) | 15 µM (inactive) | 20.8 µM (inactive) | 8.26 µM (inactive) | 11 µM (inactive) | 14 µM (inactive) | 17.7 µM (inactive) | 21.5 µM (inactive) | 7.74 µM (inactive) | 7.57 | 6.1 µM (inactive) | 18.1 µM (inactive) | 15.2 µM (inactive) | 13 µM (inactive) | 13.3 µM (inactive) | 15 µM (inactive)
12 | CCN(CC)CCNc1ccc2nnn3c4ccc(O)cc4c(=O)c1c23 | 4.35 µM (inactive) | 18.5 µM (inactive) | 11.4 µM (inactive) | 0.586 µM (active) | 10.7 µM (inactive) | 1.24 µM (inactive) | 1.01 µM (active) | 12.7 µM (inactive) | 0.603 µM (active) | 0.745 µM (active) | 0.0314 µM (active) | 2.35 µM (inactive) | 0.583 µM (active) | 1.83 | 0.935 µM (active) | 4.01 µM (inactive) | 0.608 µM (active) | 3.33 µM (inactive) | 14.3 µM (inactive) | 0.69 µM (active)
13 | COc1ccc(-c2oc3cc(OC)c(OC)c(O)c3c(=O)c2OC)cc1 | 14.5 µM (inactive) | 28.4 µM (inactive) | > 100 µM (inactive) | > 100 µM (inactive) | 24 µM (inactive) | 21.9 µM (inactive) | > 100 µM (inactive) | 18 µM (inactive) | 22.7 µM (inactive) | 33.3 µM (inactive) | > 100 µM (inactive) | 20.8 µM (inactive) | > 100 µM (inactive) | 40.5 | > 100 µM (inactive) | 18.7 µM (inactive) | > 100 µM (inactive) | > 100 µM (inactive) | 58.7 µM (inactive) | 10.5 µM (inactive)
14 | NCCCNCCCCN1CC1 | 0.745 µM (active) | 0.265 µM (active) | 7.76 µM (inactive) | 0.836 µM (active) | 1.08 µM (active) | 0.713 µM (active) | 6.98 µM (inactive) | 5.4 µM (inactive) | 0.705 µM (active) | 1.3 µM (inactive) | 16.7 µM (inactive) | 20 µM (inactive) | 2.31 µM (inactive) | 8.41 | 6.92 µM (inactive) | 3.84 µM (inactive) | 7.18 µM (inactive) | 7.05 µM (inactive) | 2.12 µM (inactive) | 0.0486 µM (active)
